Like-named read-outs stand apart in the source and are kept apart here.
Tests used:
[1] = test system: eIF2.GTP.Met-tRNAi ternary complex; test: Ternary complex assay: dual luciferase F-luc/R-luc ratio in KLN-tTA/pBISA-DL(ATF-4) cells (HTS screen, 96-well hit confirmation, dose response); type: cell-based, mouse; details: for fold induction at 3 µM / fold induction at 10 µM: Mus musculus; for fold induction at 3 µM / fold induction at 10 µM / Ternary Complex Activity: Maximum effect (Emax, fold over control) / Cmax: cell line not stated; for Effect on firefly/renilla luciferase ratio: KLN-tTA/pBISA-DL(ATF-4) cells; for Activity 2.5 uM: compound at 2.5 uM; for Activity 2.5 uM / Activity 10 uM: confirmed hits (Table 5); for Activity 10 uM: compound at 10 uM; for Cmax: read-out: Ternary Complex Activity: Maximum effective dose Cmax
From the text: For assay development, a bi-directional plasmid was designed in which a common promoter/enhancer complex drives the transcription of firefly luciferase (F-luc) ORF fused to the 5′ untranslated region (UTR) of ATF-4, and of the renilla luciferase (R-luc) ORF fused to a 90-nucleotide 5′ UTR derived from the plasmid (FIG. 6A). Because the tetracycline-regulated transactivator ((tTA), required for driving transcription from this vector) is not normally expressed in the mammalian cells, stable KLN cancer cells were constructed that expressed tTA (KLN-tTA).
The KLN-tTA colonies that drove expression of reporter genes from pBISA-DL plasmid were selected by transient transfection and dual luciferase assay. One of these KLN-tTA cell lines was transfected with the pBISA-DL^(ATF-4) expression vector, stable colonies were selected by dual luciferase assay and expanded. To determine if reduced availability of the eIF2.GTP.Met-tRNAi ternary complex increased the translation of firefly luciferase and decreased translation of renilla luciferase, selected KLN-tTA/pBISA-DL^(ATF-4) colonies were treated with thapsigargin (TG) or tunicamycin (TU), two agents known to cause phosphorylation of eIF2α.
This assay was then adapted for high throughput screening in 96 and 384 well plates. This was done by evaluating the cell density, length of exposure to compounds, DMSO tolerance and optimum firefly and renilla substrate. We then challenged these cells with thapsigargin or DMSO. […] Cell-based assays usually have higher variation than homogeneous in vitro assays due to position effect in the plate, and other variables associated with handling of cells and the plates.
Screening was conducted in 384 well white opaque plates (Nalge Nunc), 100 μl volume RPMI+10% fetal bovine serum. Cells were plated at the sub-confluent density of 10,000 cells/well, and allowed to attach for a period of 16-18 hours at 37° C., 5% CO2. Compounds were added as 1 μl of a 1 mM DMSO stock solution for a final screening concentration of […] using low-volume tips for transfer (Molecular Bioproducts). Cells were then incubated in the presence of compound for an additional sixteen hours, again at 37° C., 5% CO2. Following incubation 70 μl of the culture medium was removed from each well to allow for reagent addition and plates were allowed to equilibrate to room temperature for thirty minutes. Firefly luciferase reporter activity was then read by the addition of thirty microliters of Dual Glo Luciferase reagent (Promega), followed by one hour incubation at room temperature to allow for adequate signal buildup. Luminescence counting was conducted on a Microbeta Trilux using a 1 second read time. Renilla luciferase reporter activity was measured following addition of 30 μl Stop and Glo Luciferase reagent (Promega) and incubation identical to the one carried out for the firefly luciferase one.
Compound scores were interpreted as firefly luciferase activity divided by renilla luciferase activity, normalized to the plate's DMSO control. […] All data analysis was conducted using the BioAssay HTS software package (CambridgeSoft).
102,709 compounds in the NCI Open Chemical Repository were then screened using this HTS assay. […] Initial hits were confirmed by repeating the same dual luciferase assay in 96 well plates. Briefly, 20,000 cells/well were plated in triplicate for each concentration (10, 5 and 2.5 μM) of the compounds.

[2] = test system: CRL-2351 human breast cancer cells; test: Cell proliferation SRB assay, CRL-2351; type: cell-based
Experimental: (§1) Reduced availability of the ternary complex causes inhibition of translation initiation and thereby of cell proliferation. […] The effects of N,N′-diarylureas on the proliferation KLN mouse squamous cell carcinoma, CRL-2351 human breast, CRL-2813 human melanoma, A549 human lung and PC-3 human prostate cancer cell lines were tested.
(§2) Cell Growth Assay: Cell Growth was Measured by the SRB Assay.

[3] = test system: eIF2.GTP.Met-tRNAi ternary complex; test: ATF-4 assay (firefly/renilla luciferase ratio) in CRL-2351 cell line; type: cell-based, human
From the text: For example, reducing amount of the ternary complex increases translation of ATF-4, which results in elevated expression of CHOP mRNA and protein. Therefore, expression of endogenous CHOP mRNA and CHOP protein in KLN-tTA/pBISA-DL^(ATF-4) cells were utilized as secondary assays to validate N,N′-diarylurea compounds as modifiers of the eIF2.GTP.Met-tRNAi ternary complex. […] To rule out the possibility that the activity of N,N′-diarylurea compounds was confined to a single cell type, the effects of these compounds on the ternary complex assay and the expression of CHOP mRNA was assayed in CRL-2351, PC-3, CRL-2813 human breast, prostate, and melanoma cancer cell lines respectively. For the reporter gene assay, the three human cell lines were co-transfected with tTA expression vector and the pBISA-DL^(ATF-4) dual luciferase expression vector shown in FIG. 6. […] The expression of CHOP mRNA was assayed by real time PCR in the same cell lines treated with 5 or 20 μM of each compound.
Stable and transient transfection: Cells were seeded at the density of 10^5 in 60-mm (stable transfection) or 10^4 cells per well of 96-well plate (transient transfection) plates and transfected one day later using the Qiagen Transfectamine transfection kit. For selection of stable cell lines, transfected cells were transferred to 100-mm plates and selected with appropriate antibiotics.
Dual luciferase assay: Cells or minced tumors expressing firefly and renilla luciferases were lysed and the extracts assayed with a glow type dual luciferase assay kit, per manufacturer's instruction (Promega Inc., Madison, Wis.).

[4] = test system: KLN mouse squamous cell carcinoma cells; test: Cell proliferation SRB assay, KLN; type: cell-based; details: KLN cells, read-out: IC50 (μM) by SRB assay, KLN
Experimental: as §1, §2

[5] = CRL-2351 human breast cancer cells, read-out: Growth Inhibition IC50 (μm)

| Compound | IC50 [2, 5] | fold induction at 3 µM [1] | fold induction at 10 µM [1] | further results |
| --- | --- | --- | --- | --- |
| Cc1ccc(NC(=O)Nc2ccc(Cl)c(Cl)c2)cc1OCCN1CCOCC1 [Compound 15, 3-(3,4-dichlorophenyl)-1-{4-methyl-3-[2-(morpholin-4-yl)ethoxy]phenyl}urea] | – | – | – | maximal fold induction ([3]; Homo sapiens, read-out: ATF-4 Amax: maximal activity, ratio of firefly over renilla luciferase expression): 5.5; EC (activity threshold of 5) ([3]; Homo sapiens, read-out: ATF-4 C[5] (μM): concentration corresponding to an activity threshold of 5): 9 µM; Cmax ([3]; read-out: ATF-4 Cmax (μM): concentration corresponding to the maximal activity): 10 µM; IC50 [4]: 20 µM; IC50 ([2]; Homo sapiens, 2351 cells, read-out: IC50 (μM) by SRB assay, 2351): 2.4 µM |
| CO[C@@]12[C@H](COC(N)=O)C3=C(C(=O)C(C)=C(N)C3=O)N1C[C@@H]1N[C@@H]12 [mitomycin, reference compound] | – | – | – | Effect on firefly/renilla luciferase ratio [1]: no effect |
| N#Cc1ncc(Cl)cc1[N+](=O)[O-] [Compound 141226] | – | – | – | Activity 2.5 uM [1]: 1.02; Activity 10 uM [1]: 3.8 |
| COc1cc(N(C)C(=O)Nc2cc(C(F)(F)F)cc(C(F)(F)F)c2)ccc1C [BLS14] | – | – | – | Ternary Complex Activity: Maximum effect (Emax, fold over control) [1]: Inactive |
| tunicamycin [reference compound] | – | – | – | Effect on firefly/renilla luciferase ratio [1]: increase in the ratio |
| C[C@H](N)C(=O)NCC(=O)N[C@H]1CSSC[C@@H](C(=O)O)NC(=O)[C@H](CO)NC(=O)[C@H]([C@@H](C)O)NC(=O)[C@H](Cc2ccccc2)NC(=O)[C@H]([C@@H](C)O)NC(=O)[C@H](CCCCN)NC(=O)[C@H](Cc2c[nH]c3ccccc23)NC(=O)[C@H](Cc2ccccc2)NC(=O)[C@H](Cc2ccccc2)NC(=O)[C@H](CC(N)=O)NC(=O)[C@H](CCCCN)NC1=O [Somatostatin] | – | – | – | Relative F-luc/R-luc Ratio (+/− SEM) ([1]; agent at 20 μM): 0.9 + 0.2 |
| C/C=C(/C)C(=O)O[C@H]1C(C)=C2[C@H]([C@@H]1OC(=O)CCCCCCC)[C@@](C)(OC(C)=O)C[C@H](OC(=O)CCC)[C@@]1(O)[C@H]2OC(=O)[C@@]1(C)O [thapsigargin, reference compound] | – | – | – | Effect on firefly/renilla luciferase ratio [1]: increase in the ratio |
| CC(C)(C)C[CH2][Hg][Cl] [Compound 146249] | – | – | – | Activity 2.5 uM [1]: 2.57; Activity 10 uM [1]: 3.25 |
| Cc1ccc(N(C)C(=O)Nc2cc(C(F)(F)F)cc(C(F)(F)F)c2)cc1O [BLS13] | – | – | – | Ternary Complex Activity: Maximum effect (Emax, fold over control) [1]: 8.5 fold over control; Cmax [1]: 80 µM |
| CN(C(=O)Nc1cc(C(F)(F)F)cc(C(F)(F)F)c1)c1cc(C(F)(F)F)cc(C(F)(F)F)c1 [BLS17] | – | – | – | Ternary Complex Activity: Maximum effect (Emax, fold over control) [1]: 13 fold over control; Cmax [1]: 10 µM |
| Clc1ccc(Nc2nncn2-c2ccc(Cl)c(Cl)c2)cc1Cl [Compound 1842] | – | 1 | 1 | – |
| COc1cc([C@@H]2c3cc4c(cc3[C@@H](O[C@@H]3O[C@@H]5CO[C@@H](C)O[C@H]5[C@H](O)[C@H]3O)[C@H]3COC(=O)[C@H]23)OCO4)cc(OC)c1O [etoposite, reference compound] | – | – | – | Effect on firefly/renilla luciferase ratio [1]: no effect |

The next lines start with results.

| IC50 [2, 5] | Compound | fold induction at 3 µM [1] | fold induction at 10 µM [1] | further results |
| --- | --- | --- | --- | --- |
| 2 µM | CNC(=O)c1cc(Oc2ccc(NC(=S)Nc3ccc(Cl)c(C(F)(F)F)c3)cc2)ccn1 [Compound 1814] | 1.5 | 2 | – |
| 0.9 µM | S=C(Nc1ccc(Cl)c(Cl)c1)Nc1ccc(Cl)c(Cl)c1 [Compound 1806] | 2.5 | 3.5 | – |
| 1.5 µM | FC(F)(F)c1cc(NC(=S)Nc2ccccc2)cc(C(F)(F)F)c1 [Compound 1819] | 1 | 6 | – |
| 2 µM | FC(F)(F)c1cc(Nc2nncn2-c2cc(C(F)(F)F)cc(C(F)(F)F)c2)cc(C(F)(F)F)c1 [Compound 1836] | 1 | 1 | – |
| 1.5 µM | COc1ccc(NC(=S)Nc2cc(C(F)(F)F)cc(C(F)(F)F)c2)cc1 [Compound 1816] | 1 | 2.5 | – |
| 0.8 µM | FC(F)(F)c1cc(NC(=S)Nc2ccc(Cl)cc2)ccc1Cl [Compound 1801] | 3 | 3 | – |
| 1.7 µM | Cc1ccc(NC(=S)Nc2cc(C(F)(F)F)cc(C(F)(F)F)c2)cc1O [Compound 1803] | 1 | 12 | – |
| 1.2 µM | FC(F)(F)c1ccc(NC(=S)Nc2ccc(Cl)c(Cl)c2)cc1 [Compound 1797] | 1 | 1 | – |
| 0.7 µM | FC(F)(F)c1cc(NC(=S)Nc2ccc(Cl)c(Cl)c2)ccc1Cl [Compound 1799] | 4 | 4 | – |
| 3.5 µM | Cc1ccc(NC(=S)Nc2ccc(Cl)c(C(F)(F)F)c2)cc1O [Compound 1802] | 1.5 | 7 | – |
| > 20 µM | COc1ccc(NC(=S)Nc2ccccc2)cc1 [Compound 1815] | 1 | 1 | – |
| 1.5 µM | CC(C)c1ccccc1NC(=S)Nc1cc(C(F)(F)F)cc(C(F)(F)F)c1 [Compound 1820] | 1.5 | 11 | – |
| 0.4 µM | FC(F)(F)c1cc(NC(=S)Nc2ccc(Cl)c(Cl)c2)cc(C(F)(F)F)c1 [Compound 1798] | 3 | 5 | – |
| 4 µM | CC(C)(C)c1ccccc1NC(=S)Nc1cc(C(F)(F)F)cc(C(F)(F)F)c1 [Compound 1821] | 1 | 1 | – |
| 0.1 µM | FC(F)(F)c1cc(NC(=S)Nc2cc(C(F)(F)F)cc(C(F)(F)F)c2)cc(C(F)(F)F)c1 [Compound 1804] | 6 | 25 | – |
| 1.6 µM | S=C(Nc1ccc(Cl)cc1)Nc1ccc(Cl)c(Cl)c1 [Compound 1805] | 1.4 | 8 | – |
| 0.5 µM | FC(F)(F)c1cc(NC(=S)Nc2ccc(Cl)cc2)cc(C(F)(F)F)c1 [Compound 1800] | 3 | 4 | – |
| 0.4 µM | FC(F)(F)c1cc(NC(=S)Nc2ccc(Cl)c(C(F)(F)F)c2)ccc1Cl [Compound 1778] | 5 | 8 | – |
